Source: patent publication US20160175302A1 (AB SCIENCE, priority 2014, published 2016)

Key:
[1] = tested on: Gastric cancer cell line AGS; assay: Colorimetric cell proliferation and viability assay (CellTiter-Blue), AGS; settings: 72 h, read-out: IC50, agent alone
[2] = tested on: Gastric cancer cell line HGC-27; assay: Colorimetric cell proliferation and viability assay (CellTiter-Blue), HGC-27; settings: Homo sapiens, HGC-27, 72 h, read-out: IC50, agent alone
[3] = clinically achievable concentrations, plasma; read-out: Cmax (reported / approximate, measured in plasma); cited from earlier work

| SMILES | IC50 [1] [µM] | IC50 [2] [µM] | Cmax [3] [µM] |
| --- | --- | --- | --- |
| O=c1[nH]cc(F)c(=O)[nH]1 [5-FU, 5-fluorouracil] | 100 | 1000 | 60 to 200 |
| CCc1c2c(nc3ccc(OC(=O)N4CCC(N5CCCCC5)CC4)cc13)-c1cc3c(c(=O)n1C2)COC(=O)[C@]3(O)CC [Irinotecan] | 20 | > 100 | 1 to 10 |
| CC[C@]1(O)C[C@H]2CN(CCc3c([nH]c4ccccc34)[C@@](C(=O)OC)(c3cc4c(cc3OC)N(C=O)[C@H]3[C@@](O)(C(=O)OC)[C@H](OC(C)=O)[C@]5(CC)C=CCN6CC[C@]43[C@@H]65)C2)C1 [Vincristin] | > 1 | 0.1 to 1 |  |

More lines, main results first:

| IC50 [1] [µM] | IC50 [2] [µM] | SMILES | Cmax [3] [µM] |
| --- | --- | --- | --- |
| 10 | 20 | COc1cc([C@@H]2c3cc4c(cc3[C@@H](O[C@@H]3O[C@@H]5CO[C@@H](C)O[C@H]5[C@H](O)[C@H]3O)[C@H]3COC(=O)[C@H]23)OCO4)cc(OC)c1O [Etoposide] | ~34 |
| 5 to 10 | 5 to 10 | Cc1ccc(NC(=O)c2ccc(CN3CCN(C)CC3)cc2)cc1Nc1nc(-c2cccnc2)cs1 [masitinib, 4-(4-methylpiperazin-1-ylmethyl)-N-[4-methyl-3-(4-pyridin-3ylthiazol-2-ylamino)phenyl]benzamide] |  |
